# In patent US9205073B2, “Method for treating virus infection using derivative of aniline” (CHINA MEDICAL UNIVERSITY, priority 2014, dated 2015):
# Assays:
# JEV T1P1 [1] = experiment: Viral plaque test, JEV T1P1 replication in BHK-21 cells; format: cell-based, Japanese encephalitis virus; conditions: treated for 48 or 72 hours
# Description: BHK-21 cells and/or TE671cells were separately cultured in a 24-well culture plate, with an initial density of 3×10^4 per well, and with 1 ml of 2% FBS-containing MEM medium per well. The cells were incubated in an incubator (37° C., 5% CO2) overnight, and the medium was removed until the cells adhered to the plate. Then, fresh 2% FBS-containing MEM medium was simultaneously added into each well of the culture plate. The cells were infected with a JEV T1P1 virus strain, wherein the amount of JEV T1P1 used to infect BHK-21 cells was a multiplicity of infection (M.O.I.)=0.1, and the amount of JEV T1P1 used to infect TE671 cells was M.O.I.=0.05. Different concentrations of compound 1 (final concentrations were 0, 2.5, 25 and 125 μM, respectively) were added into different wells. The culture plate was placed into an incubator (37° C., 5% CO2) and maintained therein. […]
# BHK-21 cells were cultured in a 6-well culture plate at an initial density of 3×10^5 per well with 2 ml of 2% FBS-containing MEM medium per well. […] The cells were washed with clear water, and then the viral plaques were counted to calculate the virus titer.
# JEV T1P1 [2] = experiment: Cytopathic effect test, JEV T1P1-infected BHK-21 cells; format: cell-based, Japanese encephalitis virus
# Description: (§1) BHK-21 cells and/or TE671cells were separately cultured in a 24-well culture plate, with an initial density of 3×10^4 per well, and with 1 ml of 2% FBS-containing MEM medium per well. The cells were incubated in an incubator (37° C., 5% CO2) overnight, and the medium was removed until the cells adhered to the plate. Then, fresh 2% FBS-containing MEM medium was simultaneously added into each well of the culture plate. The cells were infected with a JEV T1P1 virus strain, wherein the amount of JEV T1P1 used to infect BHK-21 cells was a multiplicity of infection (M.O.I.)=0.1, and the amount of JEV T1P1 used to infect TE671 cells was M.O.I.=0.05. Different concentrations of compound 1 (final concentrations were 0, 2.5, 25 and 125 μM, respectively) were added into different wells. The culture plate was placed into an incubator (37° C., 5% CO2) and maintained therein.
# (§2) When BHK-21 cells were infected with JEV T1P1 virus strain for 48 and 72 hours as indicated in the above experiment (1), the cytopathic effect was observed by photography, while the cytopathic effect of TE671 cells was observed by photography when TE671 cells were infected with the JEV T1P1 virus strain for 36 and 48 hours. In addition, 200 μl culture medium supernatant of both cells was collected from each time point (i.e., 48 and 72 hours), thereby, providing the use for a viral plaque test in Example 4.
# [3] = MTT assay, cell survival / CC50 in RD cells; format: cell-based; conditions: human, read-out: concentration of 50% cytotoxicity (CC50)
# Description: In this example, 3-(4,5-dimethylthiazol-2-yl)-2,5-diphenyl tetrazolium bromide (MTT) was used to determine if the survival rate of BHK-21 cells, TE671cells and RD cells would be influenced when being treated with different concentrations of compound 1 prepared in Example 1. The concentration of 50% cytotoxicity (CC50) of compound 1 in BHK-21 cells, TE671cells and RD cells was also calculated.
# MTT is a water-soluble tetrazolium salt which can react in the mitochondrial respiratory chain in living cells to metabolize and reduce the tetrazolium bromide shown in the structure of MTT and to form an water-insoluble purple crystal formazan under the reaction of succinate dehydrogenase (SDH) and cytochrome c (cyt c). The amount of the produced crystal is directly proportional to the number of living cells (because the SDH will disappear from dead cells, and thus, the MTT cannot be reduced). Furthermore, a mitochondrium is an organelle in cells that is most sensitive to the environment, and thus, the MTT assay can serve as a marker for the survival rate of cells treated by the drug.
# BHK-21 cells, TE671cells and RD cells were cultured in a 96-well culture plate, respectively, with an initial density of 3×10^3 per well, and with 100 μl of 2% FBS-containing MEM medium per well. […] The absorbances of the samples were measured by ELISA at a wavelength of 570/630 nm.
# JEV T1P1 [4] = experiment: Cytopathic effect test, JEV T1P1-infected TE671 cells; format: cell-based, Japanese encephalitis virus
# Description: as §1, §2
# JEV T1P1 [5] = experiment: Apoptosis test (Annexin V/PI flow cytometry), JEV T1P1-infected BHK-21 cells; format: cell-based, Japanese encephalitis virus; conditions: JEV T1P1 infection 36 hours; infected without compound 59.05%
# Description: as §1
# BHK-21 cells and TE 671 cells were washed with PBS after being infected with the JEV T1P1 virus strain for 36 hours in the above experiment (1). Then, PBS was removed. Trypsin-EDTA (150 μl) was added into each well. The cells were incubated in an incubator at 37° C. for 3 minutes. Then, 1 ml MEM medium was added into each well to neutralize EDTA. […] The cells were maintained in the dark for 5 to 10 minutes, and then analyzed by flow cytomerty.
# EV71 = experiment: Enterovirus infection-induced cytopathic effect in RD cells; format: cell-based, enterovirus type 71; conditions: infected 36 hours, M.O.I.=0.1, compound 125 μM
# Description: RD cells were cultured in a 24-well culture plate at an initial density of 3×10^4 per well with 1 ml of 2% FBS-containing MEM medium per well. The cells were incubated in an incubator (37° C., 5% CO2) overnight. The medium was removed, and then 1 ml of fresh 2% FBS-containing MEM medium was simultaneously added into each well. The RD cells were infected with EV71 virus strain (M.O.I.=0.1). Different concentrations of compound 1 (final concentrations were 0, 2.5, 25 and 125 μM) were added into different wells. The RD cells were incubated in an incubator (37° C., 5% CO2) for 36 hours, and then their morphology was observed by photography.
smiles,measurement,setting,value
"CCOC(=O)C1=C(Nc2cc(C)cc(C)c2)OCC1=O [Compound 1, ethyl 2-(3′,5′-dimethylanilino)-4-oxo-4,5-dihydrofuran-3-carboxylate]",replication of JEV T1P1 (virus titer),JEV T1P1 [1],significantly decreased
same,JEV T1P1-induced cytopathic effect,"JEV T1P1 [2]; infected 48 hours, M.O.I.=0.1, compound 25 μM simultaneously",significantly reduced
same,JEV T1P1-induced cytopathic effect,"JEV T1P1 [2]; infected 72 hours, M.O.I.=0.1, compound 125 μM simultaneously",effectively inhibited
same,CC50 at 48 h,[3],222 µM
same,JEV T1P1-induced cytopathic effect,"JEV T1P1 [4]; infected 36 hours, M.O.I.=0.05, compound 25 μM simultaneously",inhibited
same,JEV T1P1-induced cytopathic effect,"JEV T1P1 [4]; infected 48 hours, M.O.I.=0.05, compound 25 μM",inhibited
same,ratio of BHK-21 cells getting into late apoptosis,JEV T1P1 [5],reduced by compound 1 in a concentration dependent manner
same,EV71-induced cytopathic effect,EV71,effectively inhibited
